ChEMBL document CHEMBL4219231, “Nε-Acryloyllysine Piperazides as Irreversible Inhibitors of Transglutaminase 2: Synthesis, Structure-Activity Relationships, and Pharmacokinetic Profiling” (J Med Chem, 2018)
≈ marks a conversion by molar mass, not a printed value. Calls of active or inactive are those of the source. The rule behind the calls is not given here.

How the values were obtained:
[1] = Chromatographic hydrophobicity index in immobilized artificial membrane at pH 7.4 by HPLC method; assay type: ADME, cell membranes
[2] = Thermodynamic solubility of the compound in 0.01 M phosphate buffer at pH 7.4 at 22 degC after 39 hrs by UPLC-DAD-MS analysis; assay type: physicochemical; conditions: read-out: Therm_solubility
[3] = biological target: T1, Protein-glutamine gamma-glutamyltransferase (Homo sapiens, UniProt P21980); assay: Inhibition of TGase 2 in human A375 cells using R-I-Cad/DMC as substrate preincubated for 5 mins followed by substrate addition measured at 30 secs interval over 900 secs by fluorescence anisotropy assay; assay type: cell-based
T1 sequence (P21980 whole entry): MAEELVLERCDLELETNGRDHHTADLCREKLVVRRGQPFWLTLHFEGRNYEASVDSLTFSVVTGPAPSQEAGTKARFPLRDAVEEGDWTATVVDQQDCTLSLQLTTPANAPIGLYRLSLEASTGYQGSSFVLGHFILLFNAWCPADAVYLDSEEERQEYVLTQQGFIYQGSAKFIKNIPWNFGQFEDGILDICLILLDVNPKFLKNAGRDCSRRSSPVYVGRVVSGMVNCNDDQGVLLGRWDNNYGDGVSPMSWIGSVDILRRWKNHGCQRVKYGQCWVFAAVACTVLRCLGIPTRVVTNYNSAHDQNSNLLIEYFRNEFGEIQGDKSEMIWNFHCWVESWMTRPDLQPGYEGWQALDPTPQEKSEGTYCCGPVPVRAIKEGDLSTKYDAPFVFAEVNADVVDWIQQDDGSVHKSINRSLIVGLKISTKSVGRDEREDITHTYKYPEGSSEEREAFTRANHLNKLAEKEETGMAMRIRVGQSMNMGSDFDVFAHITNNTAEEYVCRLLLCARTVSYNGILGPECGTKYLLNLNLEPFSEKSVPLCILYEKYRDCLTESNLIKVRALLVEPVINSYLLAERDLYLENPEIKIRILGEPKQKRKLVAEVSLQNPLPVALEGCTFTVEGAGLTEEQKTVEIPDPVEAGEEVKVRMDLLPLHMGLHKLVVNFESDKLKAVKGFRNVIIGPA

Homo sapiens [4] = species: Homo sapiens; assay: Selectivity index, ratio of Kinact/Ki for human TGase 2 to Kinact/Ki for human TGase 6
[5] = biological target: T1, Protein-glutamine gamma-glutamyltransferase; assay: Inhibition of human TGase 2 using R-I-Cad/DMC as substrate preincubated for 5 mins followed by substrate addition measured at 30 secs interval over 900 secs by fluorescence anisotropy assay
Homo sapiens [6] = species: Homo sapiens; assay: Selectivity index, ratio of Kinact/Ki for human TGase 2 to Kinact/Ki for human Factor 13a
[7] = Inhibition of guinea pig TGase 2 using F-Cad/DMC as substrate preincubated for 30 mins followed by substrate addition measured at 30 secs interval over 900 secs by fluorescence anisotropy assay; parameters: species or system Cavia porcellus
[8] = Membrane retention, RM of the compound; assay type: physicochemical
Homo sapiens [9] = species: Homo sapiens; assay: Selectivity index, ratio of Kinact/Ki for human TGase 2 to Kinact/Ki for human TGase 3
in vitro = conditions: PAMPA
Description: Effective permeability of the compound by PAMPA assay

Homo sapiens [10] = species: Homo sapiens; assay: Selectivity index, ratio of Kinact/Ki for human TGase 2 to Kinact/Ki for human TGase 1
[11] = biological target: T1, Protein-glutamine gamma-glutamyltransferase; assay: Reversible inhibition of human TGase 2 using Z-Glu(HMC)-Gly-OH as substrate measured at 20 secs interval over 900 secs by fluorimetric assay
[12] = biological target: T2, Protein-glutamine gamma-glutamyltransferase (Homo sapiens) (UniProt P21980); assay: Irreversible inhibition of human TGase 2 using Z-Glu(HMC)-Gly-OH as substrate up to 25 uM measured at 20 secs interval over 900 secs by fluorimetric assay
T2 sequence (whole entry): T1 sequence (P21980 whole entry)

[13] = n-octanol-phosphate buffer partition coefficient, log D of compound at pH 7.4 by 19F NMR analysis; assay type: physicochemical
[14] = Drug metabolism in mouse liver microsomes assessed as metabolic transformation at pyridylpiperazine moiety at 100 uM measured after 60 mins by EPI-mass spectroscopy; assay type: ADME, microsome; conditions: 1 h
[15] = Thermodynamic solubility of the compound in 0.01 M phosphate buffer at pH 7.4 at 22 degC after 26 hrs by UPLC-DAD-MS analysis; assay type: physicochemical; conditions: read-out: Therm_solubility
[16] = Metabolic stability in mouse liver microsomes assessed as parent compound remaining at 100 uM measured after 60 mins by HPLC-UV analysis; assay type: ADME, microsome; conditions: microsomes, 1 h, 100 µM

SMILES | CHI [1] | solubility thermodynamic at 39 h [2] [µM] | IC50 [3] [nM] | Selectivity Index (Homo sapiens [4]) | IC50 [5] [nM] | Selectivity Index (Homo sapiens [6]) | IC50 [7] [nM] | Rm [8] [%] | Selectivity Index (Homo sapiens [9]) | Papp (in vitro) [×10⁻⁶ cm/s] | Selectivity Index (Homo sapiens [10]) | Ki [11] [nM] | inhibition [12] | logD [13] | Drug metabolism [14] | solubility thermodynamic at 26 h [15] [µM] | Stability [16]
C=CC(=O)NCCCC[C@H](NC(=O)Cc1ccccc1)C(=O)N1CCN(c2cccc([N+](=O)[O-])n2)CC1 | 30.7 | 452 (≈ 230 µg/mL) | 400 | 275 to 1920 | 100 | 275 to 1920 | 120 | 10 | 275 to 1920 | 9.16 | 275 to 1920 | 2260 | Active |  |  |  | 
C=CC(=O)NCCCC[C@H](NC(=O)Cc1ccccc1)C(=O)N1CCN(c2cccc(F)n2)CC1 | 31.8 |  | 1100 | 275 to 1920 | 110 | 275 to 1920 | 200 | 14 | 275 to 1920 | 13.3 | 275 to 1920 | 6280 |  | 2.1 | Metabolite_Detected | 645 (≈ 311 µg/mL) | Unstable
